These results are taken from patent US8945549B2, “Methods of treating antinociceptive tolerance” (Saint Louis University, priority 2010, dated 2015).

For experiment [1], the system named is S1P. In words: S1P levels in dorsal horn tissue by ELISA. It is filed as in vivo, rat. Background: An ELISA detects its analyte on a solid surface through an enzyme-linked reagent.
Experiment [2] deals with rats. Nature of the experiment: Carrageenan-induced thermal hyperalgesia. The settings on record: intraplantar SK-1 250, 500 or 1000 ng. It counts as in vivo, rat.
The nature of experiment [3]: Carrageenan-induced inflammation. As to conditions: intraplantar injection 15 min before carrageenan. It counts as in vivo.
Experiment [4] deals with Male Sprague Dawley rats. In words: Antinociceptive tolerance (tail flick after acute morphine) in rats with chronic s.c. morphine or saline infusion. It is filed as in vivo, rat. The settings on record: acute i.th injection; n=4, not shown.
For experiment [5], the system named is Male Sprague Dawley rats. The description is as above. It counts as in vivo, rat. Here is the method:
(§1) Osmotic pump implantation. Rats, under light isoflurane anesthesia, were subcutaneously implanted (in the interscapular region) with osmotic pumps (Alzet 2001; Alza, Mountain View Calif.), to deliver saline at 1 μl/h or morphine at 75 μg μl^−1h^−1 over 7 days as described (Vera-Portocarrero et al., 2006). Minipumps were filled according to manufacturer's specifications. The use of the osmotic pump ensures a continuous delivery of morphine avoiding intermittent periods of withdrawal. The integrity of the pump delivery system was reexamined at the end of each experiment when the spinal cords were harvested.
(§2) Drug administration. The test substances fumonisin B1 (FB 1, Sigma-Aldrich, St. Louis, Mo.), myriocin (Myr Sigma-Aldrich, St. Louis, Mo.), D609 (Tricyclodecan-9-ylxanthogenate, K; Calbiochem, San Diego, Calif.), DMS (N,N-Dimethylsphingosine, Caymen Chemical, Ann Arbor, Mich.), SK-I 2-(p-hydroxyanilino)-4-(p-chlorophenyl) thiazole, Calbiochem, San Diego, Calif.) or their vehicle (0.5% in DMSO) were delivered by intrathecal (i.th) injection in rats chronically implanted with i.th cannulas as described previously (Storkson et al., 1996). Test substances were injected i.th once a day for 6 days in a total volume of 10 μl followed by a 10 μl flush with sterile physiological saline.
After the Hargreave's test, the development of antinociceptive tolerance was determined in all animals as follows. Acute nociception. The tail flick test which measures, withdrawal latencies of the tail from a noxious radiant heat source was used to measure thermal nociceptive sensitivity with baseline latencies of 4-5 sec and it cut-off time of 10 sec to prevent tissue injury (D'Amour, 1941). […]. Test substances or vehicle were given on day 0-6 after completion of the behavioral tests. At the required time points, after the behavioral tests, spinal cord tissues from the lumbar, enlargement segment of the spinal cord (L4-L6) and dorsal horn tissues were removed and tissues processed for immunohistochemical, Western blot and biochemical analysis. All experiments were conducted with the experimenters blinded to treatment conditions. […]

Experiment [6] has as its system Male Sprague Dawley rats. In words: Thermal hyperalgesia (Hargreaves paw-withdrawal latency) in rats with chronic s.c. morphine or saline infusion. It is filed as in vivo, rat. As to the method:
as §1, §2
Behavioral tests. Thermal hyperalgesia. The method of Hargreaves and colleagues was used to assess changes in baseline nociceptive responses to a thermal nociceptive stimulus (Hargreaves et al., 1988). Animals were allowed to acclimate within a Plexiglas enclosure on a clear glass plate in a quiet testing room. A radiant heat source is focused onto the plantar aspect of the hindpaw with baseline latencies of 18-20 sec. and a maximal cutoff time of 20 sec to prevent tissue damage. The paw-withdrawal latency is determined by a motion detector activated by the paw withdrawal, stopping a timer. Foot withdrawal latencies were taken on the day before implantation of the minipumps (baseline) and subsequently on days 1, 3 and 6 of the experimental period to determine whether morphine-tolerant animals develop increased sensitivity to thermal stimulation. A significant (P<0.05) reduction in paw-withdrawal latency over time and before implantation of the osmotic minipump is characterized as thermal hyperalgesia. […]

[7] abbreviates: daily i.th for 6 days with s.c. morphine infusion, Myr 0.3, FB1 1, D609 1, DMS 0.3, SK-1 0.3 μM/day.

Consider `Oc1ccc(Nc2nc(-c3ccc(Cl)cc3)cs2)cc1` [SK-1, 2-(p-hydroxyanilino)-4-(p-chlorophenyl) thiazole], for which, in experiment [1] (setting [7]), the “morphine-induced increased production of S1P in dorsal horn tissues” value is reported as “blocked”. In experiment [1] (drug alone vs Veh-Sal, day 6), the “effect on S1P levels in spinal cord tissues” value is “did not affect”. The “S1P (pg/mg tissue)” value in experiment [1] (rat, in vivo) is recorded as 1.3 ± 0.06 pg/mg tissue. For the same compound, in experiment [2], the carrageenan-induced thermal hyperalgesia result is listed as “attenuated in a dose-dependent manner”. The carrageenan-induced inflammation result in experiment [3] is reported as “blocks”. Besides, the “reversal of tolerance once established” value in experiment [4] is “did not reverse”. Also, the “development of morphine antinociceptive tolerance” value in experiment [5] (setting [7]) is reported as “blocked”. In experiment [5] (drug alone vs Veh-Sal, day 6), the “effect on antinociceptive responses to acute morphine” value is “did not affect”. Also, the “% MPE (Tail-flick)” value in experiment [5] (drug given alone i.th daily over 6 days to saline-infused rats, response to acute morphine, day 6, mean ± SEM) was determined as 99 ± 0.9%. For the same compound, the “development of morphine-induced hyperalgesia” value in experiment [6] (setting [7]) is reported as “blocked”. In addition, the “effect on paw-withdrawal latencies” value in experiment [6] (drug alone vs Veh-Sal, day 6) is on record as “did not affect”. In addition, the “Paw-Withdrawal Latency” value in experiment [6] (drug given alone i.th daily over 6 days to saline-infused rats, day 6, mean ± SEM) came to 19 ± 0.7 s.
